One compound from patent US20260364072A1, “METHODS FOR PROMOTING EXPANSION OF HUMAN CD34+ CELLS IN VIVO AND FOR PROMOTING NEURAL REGENERATION” (THE REGENTS OF THE UNIVERSITY OF CALIFORNIA, priority 2023, published 2026) can be followed below.

For series [1], the system named is ADAR1, CD44-012, PTK2B-202, MCL1 transcripts. Briefly: Transcripts in human CD34+ cells from treated engrafted sAML mice (qRT-PCR, RNA-seq). Format: in vivo. The method, then: FIG. […]
For RNA editing analyses of whole transcriptome sequencing data, previous datasets were utilized from CD34^+ cells isolated from the spleens of sAML50261-engrafted mice treated once weekly with Rebecsinib in a dose-response assay (5 or 10 mg/kg),^14 along with CD34^+ cells harvested from mice that were serially transplanted with CD34+ cells from sAML50261-engrafted mice that had been treated twice weekly with Rebecsinib at 10 mg/kg (no further treatment was delivered to serial transplant recipients). Due to limiting number of cells remaining after treatment, cells were pooled from n=4 to 5 mice per condition for sequencing. RNA editing analysis was performed as previously described.^5
For quantitative analysis of splice isoform expression, RNA editing rates, and whole gene expression by qRT-PCR, cells or tissue fragments were harvested in RNA lysis buffer and total RNA was extracted using RNeasy mini or micro extraction kits (QIAGEN, Germantown, MD) following the manufacturer's protocol including a DNase incubation step to digest any trace genomic DNA present. Levels of ADAR1 variants and LSC-specific transcripts were quantified by qRT-PCR as previously described.^14 RNA-editing site-specific qRT-PCR (RESSqPCR) was performed for variants in AZIN1 transcripts.^53 Additional species-specific primers were also designed to quantify intron retention rates in cells treated with Rebecsinib as a biomarker of response to RNA splicing modulation. Specifically, for the two-step SYBR-green based assays, as previously described,^7,14,53 100-1000 ng of RNA were subjected to cDNA synthesis using the SUPERSCRIPT III™ (ThermoFisher Scientific) kit followed by qRT-PCR using SYBR GreenER (ThermoFisher Scientific) master mix according to the manufacturer's recommended procedures. qRT-PCR was performed using SYBR GREENER SUPER MIX™ (Life Technologies) on BioRad iQ5™, C1000 TOUCH™, or BioRad CFX384™ instruments. Human splice isoform-specific, RNA editing site-specific qPCR (RESSqPCR)^53. Primer sets that have not been previously published were designed and tested for efficiency followed by analyses in samples exposed to Rebecsinib, with species-specific HPRT primers used as controls. Samples with Ct<35 for the species-specific reference gene, HPRT, were included in analyses. Relative mRNA expression values were calculated using the 2^−ΔCT method, with normalization to untreated or vehicle-treated controls.^54
In humanized mouse models, sAML cells (CD34^+) from two unique […] patient samples that were splicing factor mutated or unmutated were utilized, including sAML50261 and sAML2008-5.^14 For in vivo efficacy and therapeutic index studies, sAML CD34^+ cells, or normal human cord blood-derived or aged bone marrow-derived HSPCs (CD34^+), were transplanted (50,000-200,000 cells per mouse) intrahepatically into neonatal Rag2^−/−γc^−/− mice, or intravenously into adult NSG-SGM3 mice (Jackson Laboratories, Bar Harbor, ME). A subset of experiments was performed with normal aged bone marrow cells that were transduced with the lentiviral ADAR1 nanoluc-GFP reporter vector prior to transplant. For transplantation into adult mice, animals were irradiated with ^137Cs at a dose of 150 cGy 24 hr before IV transplantation. After engraftment levels reached >1% human CD45^+ hematopoietic cells in the peripheral blood, animals were distributed among treatment groups for treatment with Rebecsinib or vehicle control essentially as previously described, with an increased dosing regimen of twice weekly (versus once weekly in prior studies)^14 and an optimized in vivo formulation (2% w/w EtOH, 5% w/v KOLLIPHOR HS™ 15 in 0.9% saline). […]

The subject of the next series is normal HSPCs. Briefly: Normal cord blood HSPC engrafted mice. Format: in vivo, human cells in Rag2-/-γc-/- mice. Here is the method: To determine the sensitivity of normal HSPCs to Rebecsinib, human cord blood-derived CD34+ cells were transplanted into Rag2^−/−γc^−/− mice. After human cell engraftment was established (6 to 12 weeks), mice were treated with Rebecsinib twice-weekly for two weeks at doses equivalent to the maximum doses selected for in vivo LSC assays. The frequency of CD45^+ hematopoietic cells in bone marrow, peripheral blood, spleen, and thymus were unchanged between vehicle and Rebecsinib-treated groups that received a dose of 10 mg/kg. […] Thus, a dose of 10 mg/kg in mice is sufficient to reduce in vivo sAML LSC burden while sparing normal HSPC development.
In humanized mouse models, sAML cells (CD34^+) from two unique […] patient samples that were splicing factor mutated or unmutated were utilized, including sAML50261 and sAML2008-5.^14 For in vivo efficacy and therapeutic index studies, sAML CD34^+ cells, or normal human cord blood-derived or aged bone marrow-derived HSPCs (CD34^+), were transplanted (50,000-200,000 cells per mouse) intrahepatically into neonatal Rag2^−/−γc^−/− mice, or intravenously into adult NSG-SGM3 mice (Jackson Laboratories, Bar Harbor, ME). A subset of experiments was performed with normal aged bone marrow cells that were transduced with the lentiviral ADAR1 nanoluc-GFP reporter vector prior to transplant. For transplantation into adult mice, animals were irradiated with ^137Cs at a dose of 150 cGy 24 hr before IV transplantation. After engraftment levels reached >1% human CD45^+ hematopoietic cells in the peripheral blood, animals were distributed among treatment groups for treatment with Rebecsinib or vehicle control essentially as previously described, with an increased dosing regimen of twice weekly (versus once weekly in prior studies)^14 and an optimized in vivo formulation (2% w/w EtOH, 5% w/v KOLLIPHOR HS™ 15 in 0.9% saline). For animals that received transplants of cells transduced with the lentiviral ADAR1 nanoluc-GFP reporter, mice were imaged 15 weeks after transplant on the IVIS 200, as previously described.^79 Following treatment with Rebecsinib (five intravenous doses total over a two-week period), hematopoietic tissues (peripheral blood, bone marrow, spleens) were collected and analyzed by flow cytometry as previously described.^14 For splice isoform-specific qRT-PCR or RNA-seq analyses on cells from in vivo studies, human CD34^+ LSC from bone marrows and spleens of engrafted mice were isolated by magnetic bead separation (Miltenyi Biotec).

The mark [2] stands for this setting: CD34+ cells, sAML50261 engrafted mice, vs vehicle.

Molecules are shown by their SMILES.

As to `CC[C@H](OC)[C@@H](C)[C@H]1O[C@@H]1[C@@H](O)[C@H](C)/C=C/C=C(\C)[C@H]1OC(=O)C[C@H](O)CC[C@@](C)(O)[C@@H](OC(C)=O)/C=C/[C@@H]1C` [Rebecsinib], the “MCL1-S isoform expression in human CD34+ cells” value in series [1] (CD34+ cells from bone marrows of treated mice) is given as “increase in the pro-apoptotic MCL1-S isoform expression”. Also, in series [1] (setting [2]), the CD44-012 splice isoform result is on record as “significant reduction”, the PTK2B-202 splice isoform entry is given as “significant reduction” and the “total ADAR1 RNA expression by qRT-PCR” value is recorded as “significant reduction in total ADAR1 RNA expression”. Besides, the “MCL1 splice isoform switching” value in series [1] (mice treated with 5 or 10 mg/kg, RNA-seq) was “splice isoform switching of MCL1-L to MCL1-S”. In addition, the “ADAR1 transcript splicing (RNA-seq)” value in series [1] (sAML50261 engrafted mice, Rebecsinib-treated samples) was “unique retained intron regions and alternative splice site usage”. Besides, in the series on normal HSPCs (10 mg/kg, twice-weekly for two weeks), the “frequency of CD45+ hematopoietic cells in bone marrow, peripheral blood, spleen, and thymus” value is on record as “unchanged”. Further, in the series on normal HSPCs (20 mg/kg), the “human CD19+ cells in peripheral blood” value is “reduction”; the “human CD45+ and CD19+ cells in bone marrow or spleen” value is “not in the bone marrow or spleen”; the “human CD45+ cells in peripheral blood” value was “reduction”. For the same compound, the systemic toxicity entry in the series with normal HSPCs (2 weeks of dosing at 10 or 20 mg/kg) is “no evidence of Rebecsinib-related systemic toxicity”. In the series on normal HSPCs (vs vehicle), the “CD19+ B cells in bone marrow, peripheral blood, or spleen” value is on record as “no significant reduction” and the “human CD3+ T cells in thymus or peripheral blood” value is on record as “no significant reduction”.
